For experiment [1], the system named is Plasmodium falciparum strain 3D7. The experiment in a line: Parasite growth inhibition (drug susceptibility test, pLDH readout). The class given is cell-based. Here is the method:
The cultivation of P. falciparum was conducted according to Trager’s method with some modification. Precisely, parasites were kept in culture flasks with RPMI1640 medium supplemented with 10% human plasma and 2% fresh human erythrocytes and incubated at 37 °C with the gas condition of 5% CO2 and 5% O2. The parasitemia (percentage of infected erythrocytes to total erythrocytes) were kept within 0.25–10%. Culture medium was replaced, and fresh erythrocytes were supplied every 2–3 days. Drug susceptibility test was conducted according to Desjardins’s method[18] with some modification. […] […] The plates were kept at 37 °C with the gas condition of 5% CO2 and 5% O2 for 72 h and then parasite growth was quantified with Makler’s method to detect plasmdoial lactate dehydrogenase[19] with some modification. Precisely, culture plates were kept in freezer overnight and then thawed at 37 °C to disrupt the erythrocytes and parasite cells. In the new 96-well titer plates, 100 μl of enzyme reaction solution (110 mM Li-lactate, 0.5 mM acetylpyridine-adenine dinucleotide, 50 mM Tris (pH 7.5), 10 mM EDTA, 50 mM KCl, and 15 g l^−1 PEG6000) and 20 µl of freeze-thaw culture were mixed in each well and then kept at room temperature for 30 min. The detection solution was prepared by mixing equal volume of 2 mg ml^−1 nitro blue tetrazolium and 0.1 mg ml^−1 phenazine ethosulfate and 20 µl of the solution was added to each well.

In another experiment the target is HscFRS (Homo sapiens, UniProt Q9Y285). Nature of the experiment: Surface plasmon resonance binding. Particulars: Hs; SPR, 1:1 binding model; read-out: Kd (cFRS). As to the method:
(§1) These were carried out on a Biacore T200 instrument (GE Healthcare) at 25 °C. The binding experiments were performed in buffer 10 mM phosphate buffered saline (PBS), pH 7.4, containing 5% dimethyl sulfoxide (DMSO). The flow system was primed with the running buffer before the initiation of the experiment. Both PfcFRS and HscFRS were immobilized to Sensor Chip CM5 by standard amine coupling chemistry using N-hydroxysuccinimide (NHS) and ethyl(dimethylaminopropyl) carbodiimide (EDC) to an immobilization level of approximately 1500 RU. The binding experiments were carried out in a single cycle kinetics mode. BRD1389 was serially diluted in running buffer and injected at a flow rate of 60 μl min^−1 across both surfaces for 60 s and dissociations were set up for 120 s. The data analysis was done using Biacore evaluation T200 Evaluation software (GE Healthcare) and after applying the solvent correction, the data was fitted into the 1:1 binding evaluation method to determine the equilibrium dissociation constants (Kd).
A general note: In SPR one partner is held on a chip, and binding of the other changes the refractive index at the surface.

A further experiment addresses T1, PfcFRS (Plasmodium falciparum, UniProt Q8I246).
T1 sequence (Q8I246 1-575): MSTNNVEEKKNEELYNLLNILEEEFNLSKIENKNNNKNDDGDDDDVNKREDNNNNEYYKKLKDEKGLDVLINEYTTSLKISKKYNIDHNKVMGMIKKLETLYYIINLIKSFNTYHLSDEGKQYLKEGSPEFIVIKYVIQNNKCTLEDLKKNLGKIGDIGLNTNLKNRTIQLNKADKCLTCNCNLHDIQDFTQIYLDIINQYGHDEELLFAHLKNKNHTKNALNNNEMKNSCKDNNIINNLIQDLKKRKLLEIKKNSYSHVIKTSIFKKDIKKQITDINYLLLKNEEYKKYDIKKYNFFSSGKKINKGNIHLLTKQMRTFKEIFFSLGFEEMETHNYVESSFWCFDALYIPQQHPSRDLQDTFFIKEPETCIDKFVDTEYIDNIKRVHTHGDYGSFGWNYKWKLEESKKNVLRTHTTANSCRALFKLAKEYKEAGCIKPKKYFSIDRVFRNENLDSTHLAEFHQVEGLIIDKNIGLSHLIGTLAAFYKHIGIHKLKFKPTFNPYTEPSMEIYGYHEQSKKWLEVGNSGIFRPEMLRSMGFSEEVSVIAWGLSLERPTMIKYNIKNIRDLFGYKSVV
T1 sequence (Q8IIW2 1-623 partner): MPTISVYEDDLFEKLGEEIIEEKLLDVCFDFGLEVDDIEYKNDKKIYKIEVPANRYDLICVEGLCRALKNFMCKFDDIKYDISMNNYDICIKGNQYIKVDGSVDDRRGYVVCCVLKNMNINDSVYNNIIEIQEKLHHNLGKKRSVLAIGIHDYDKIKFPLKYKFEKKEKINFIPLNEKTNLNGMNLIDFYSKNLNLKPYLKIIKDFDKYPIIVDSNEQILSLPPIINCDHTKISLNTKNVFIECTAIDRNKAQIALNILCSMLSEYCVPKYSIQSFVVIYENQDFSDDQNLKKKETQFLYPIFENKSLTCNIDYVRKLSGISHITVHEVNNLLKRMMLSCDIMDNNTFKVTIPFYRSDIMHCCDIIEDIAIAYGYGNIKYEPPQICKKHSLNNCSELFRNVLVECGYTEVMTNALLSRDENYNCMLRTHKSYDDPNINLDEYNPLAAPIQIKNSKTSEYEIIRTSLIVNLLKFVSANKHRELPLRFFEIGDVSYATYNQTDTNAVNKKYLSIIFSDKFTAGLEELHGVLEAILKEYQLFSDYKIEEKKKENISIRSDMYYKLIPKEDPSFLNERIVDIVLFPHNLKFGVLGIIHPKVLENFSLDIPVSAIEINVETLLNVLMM
Nature of the experiment: Surface plasmon resonance binding. Particulars: Pf; SPR, 1:1 binding model; read-out: Kd (cFRS). Here is the method:
as §1

SMILES strings stand for the structures. pEC50, pKd: −log10 of the molar value. Several values for one entry are separate records, joined by “and”; a condition that tells them apart may be missing. Equal values may be shown once.

Chain of HscFRS (Q9NSD9 whole entry): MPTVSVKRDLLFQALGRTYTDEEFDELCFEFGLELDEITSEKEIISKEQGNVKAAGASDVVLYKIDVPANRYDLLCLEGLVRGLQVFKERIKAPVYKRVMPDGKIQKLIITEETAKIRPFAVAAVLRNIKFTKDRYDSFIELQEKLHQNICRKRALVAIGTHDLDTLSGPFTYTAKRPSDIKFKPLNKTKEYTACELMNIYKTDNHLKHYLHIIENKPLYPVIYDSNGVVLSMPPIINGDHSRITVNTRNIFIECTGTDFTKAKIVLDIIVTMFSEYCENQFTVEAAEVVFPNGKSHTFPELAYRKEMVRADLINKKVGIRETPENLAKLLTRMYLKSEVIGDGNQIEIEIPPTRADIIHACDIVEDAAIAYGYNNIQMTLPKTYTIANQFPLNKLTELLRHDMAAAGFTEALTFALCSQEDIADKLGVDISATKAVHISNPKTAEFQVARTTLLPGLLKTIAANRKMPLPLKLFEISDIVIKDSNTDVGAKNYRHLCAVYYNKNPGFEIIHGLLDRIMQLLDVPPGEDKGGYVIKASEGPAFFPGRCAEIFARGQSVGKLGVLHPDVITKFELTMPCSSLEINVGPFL
Chain of HscFRS (Q9Y285 whole entry): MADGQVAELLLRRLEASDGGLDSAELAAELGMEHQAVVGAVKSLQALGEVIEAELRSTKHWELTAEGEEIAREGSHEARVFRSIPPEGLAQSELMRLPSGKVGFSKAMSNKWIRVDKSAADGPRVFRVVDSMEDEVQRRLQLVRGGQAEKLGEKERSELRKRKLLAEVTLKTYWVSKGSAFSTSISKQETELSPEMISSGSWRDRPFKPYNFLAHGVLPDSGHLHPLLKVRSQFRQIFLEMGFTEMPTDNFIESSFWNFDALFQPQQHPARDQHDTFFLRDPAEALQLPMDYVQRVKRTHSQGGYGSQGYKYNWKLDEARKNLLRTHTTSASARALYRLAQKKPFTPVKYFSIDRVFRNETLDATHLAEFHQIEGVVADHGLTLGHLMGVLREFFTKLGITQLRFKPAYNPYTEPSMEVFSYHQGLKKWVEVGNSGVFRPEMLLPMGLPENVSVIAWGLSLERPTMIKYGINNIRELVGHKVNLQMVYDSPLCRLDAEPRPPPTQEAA

By IC50 is commonly meant the concentration needed to halve the response being measured. Low readings indicate inhibition by little substance, high ones a need for much substance. In general, pEC50 refers to the EC50 on a negative log10 scale, so that one unit is a factor of ten. Broadly, the pKd is the Kd on a negative log10 scale, so that one unit is a factor of ten. As to `COC[C@@H]1[C@H](c2ccc(C#Cc3ccccc3)cc2)[C@@H]2CN(C(=O)Nc3ccc(OC4CC4)cc3)C[C@@H](O)[C@@H](O)CN12` [BRD1389], the “% Parasite Growth” value in experiment [1] (3D7, 0.000976562 ug/mL) is 93.5%; in experiment [1] (3D7, 0.00195312 ug/mL) it was 94.1%; in experiment [1] (3D7, 0.00390625 ug/mL) it was 94.0%; in experiment [1] (3D7, 0.0078125 ug/mL), 47.5%; in experiment [1] (3D7, 0.015625 ug/mL) it was 14.7%; in experiment [1] (3D7, 0.03125 ug/mL), 8.9%. The “% Parasite Growth” value in experiment [1] (3D7, 0.0625 ug/mL) came out at 2.0%; in experiment [1] (3D7, 0.125 ug/mL), 1.8%; in experiment [1] (3D7, 0.25 ug/mL) it was 1.5%; in experiment [1] (3D7, 0.5 ug/mL) it was 1.7%; in experiment [1] (3D7, 1 ug/mL), 2.2%. In experiment [1] (Plasmodium falciparum, 3D7), the IC50 is 0.00753 µg/mL and 13.3 nM. The pEC50 in experiment [1] (Plasmodium falciparum, 3D7, 72 h) is 7.89. The values for the pKd at HscFRS and on PfcFRS were 4.80 and 8.40, respectively.

Values taken from PMC7803973, “Structural basis of malaria parasite phenylalanine tRNA-synthetase inhibition by bicyclic azetidines” (Nature Communications, 2021).
